What follows are compounds tested against GST tagged IRAK4 (Homo sapiens (Human), UniProt Q9NWZ3) (assay: Determination of IRAK4 kinase activity (IMAP fluorescence polarization)). Conditions: 0.5 nM GST tagged IRAK4, 100 nM fluorescent peptide substrate RP7030, 100 μM ATP, 30 minutes at 25° C.
Format: biochemical
Protocol: The kinase activity of IRAK4 is determined by its ability to catalyze the phosphorylation of a fluorescent polypeptide substrate. The extent of phosphorylation is measured using IMAP technology (Molecular Devices) where the phosphorylated fluorescent substrate binds to the large M(III)-based nanoparticles which reduces the rotational speed of the substrate and thus increases its fluorescent polarization (FP).
Procedure: A 20 μl reaction mixture contains 10 mM TriHCl, pH 7.2, 0.5 nM GST tagged IRAK4 (SignalChem), 100 nM fluorescent peptide substrate (RP7030, Molecular Devices), 100 μM ATP, 1 mM DTT, 1 mM MgCl2, and 0.01% Tween 20. The reaction is initiated by the addition of ATP. After incubation for 30 minutes at 25° C., 60 μl of Progressive IMAP Reagent (Molecular Devices) is added to stop the reaction. Change in RP7030's FP is determined by a FP reader (Analyst HT, LJL BioSystems).

Sequence of GST tagged IRAK4 (Q9NWZ3 whole entry): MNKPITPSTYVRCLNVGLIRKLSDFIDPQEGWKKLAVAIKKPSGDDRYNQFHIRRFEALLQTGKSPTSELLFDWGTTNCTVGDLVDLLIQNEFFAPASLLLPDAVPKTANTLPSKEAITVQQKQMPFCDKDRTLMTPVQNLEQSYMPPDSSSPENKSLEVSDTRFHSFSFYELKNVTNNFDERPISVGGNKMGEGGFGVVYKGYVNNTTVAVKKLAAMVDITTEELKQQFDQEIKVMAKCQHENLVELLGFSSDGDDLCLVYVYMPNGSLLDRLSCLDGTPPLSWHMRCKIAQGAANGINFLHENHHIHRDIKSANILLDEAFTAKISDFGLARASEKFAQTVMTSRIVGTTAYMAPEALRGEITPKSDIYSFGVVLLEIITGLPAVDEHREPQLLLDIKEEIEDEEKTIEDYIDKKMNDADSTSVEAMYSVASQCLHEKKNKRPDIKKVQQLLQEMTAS

**Q.** How did the IC50 turn out when `CN1CCCC(CNC(=O)c2nn(C)cc2NC(=O)c2cccc(-c3ccnc(NCC4CC4)c3)n2)C1` (stereo not drawn) [Example 49, 2′-((cyclopropylmethyl)amino)-N-(1-methyl-3-(((1-methylpiperidin-3-yl)methyl)carbamoyl)-1H-pyrazol-4-yl)-[2,4′-bipyridine]-6-carboxamide] was run?
**A.** The IC50 was 260 nM.

**Q.** For `CN(C)CCCCCNC(=O)c1nn(C)cc1NC(=O)c1cccc(-c2ccnc(NCC3CC3)c2)n1` [Example 37, 2′-((cyclopropylmethyl)amino)-N-(3-((5-(dimethylamino)pentyl)carbamoyl)-1-methyl-1H-pyrazol-4-yl)-[2,4′-bipyridine]-6-carboxamide], which IC50 is on record?
**A.** Its IC50 is 2190 nM.

**Q.** How did the IC50 turn out when `Cn1cc(NC(=O)c2cccc(-c3cncc(Cl)c3)n2)c(C(N)=O)n1` [Example 29, N-(3-carbamoyl-1-methyl-1H-pyrazol-4-yl)-5′-chloro-[2,3′-bipyridine]-6-carboxamide] was run?
**A.** Its IC50 is 91 nM.

**Q.** For `Cn1cc(NC(=O)c2cccc(-n3cccc3)n2)c(C(N)=O)n1` [Example 2, N-(3-carbamoyl-1-methyl-1H-pyrazol-4-yl)-6-(1H-pyrrol-1-yl)picolinamide], which IC50 is on record?
**A.** The IC50 was 649 nM.

**Q.** `COCCNc1cc(-c2cccc(C(=O)Nc3cn(C)nc3C(N)=O)n2)ccn1` [Example 15, N-(3-carbamoyl-1-methyl-1H-pyrazol-4-yl)-2′-((2-methoxyethyl)amino)-[2,4′-bipyridine]-6-carboxamide] was tested. Which IC50 did it give?
**A.** Its IC50 is 187 nM.

**Q.** Which IC50 does the source give for `Cn1cc(NC(=O)c2cccc(-c3ccnc(NC(=O)OC(C)(C)C)c3)n2)c(C(N)=O)n1` [Example 4, tert-butyl(6-((3-carbamoyl-1-methyl-1H-pyrazol-4-yl)carbamoyl)-[2,4′-bipyridin]-2′-yl)carbamate] here?
**A.** Its IC50 is 785 nM.

**Q.** Which IC50 does the source give for `CN1CCC(CNC(=O)c2nn(C)cc2NC(=O)c2cccc(-c3ccnc(NCC4CC4)c3)n2)C1` (stereo not drawn) [Example 34, 2′-((cyclopropylmethyl)amino)-N-(1-methyl-3-(((1-methylpyrrolidin-3-yl)methyl)carbamoyl)-1H-pyrazol-4-yl)-[2,4′-bipyridine]-6-carboxamide] here?
**A.** The IC50 was 729 nM.

**Q.** Which IC50 does the source give for `COc1ncccc1-c1cccc(C(=O)Nc2cn(C)nc2C(N)=O)n1` [Example 20, N-(3-carbamoyl-1-methyl-1H-pyrazol-4-yl)-2′-methoxy-[2,3′-bipyridine]-6-carboxamide] here?
**A.** The IC50 was 2130 nM.

**Q.** How did the IC50 turn out when `Cn1cc(NC(=O)c2cccc(-c3ccnc(NCC4CC4)c3)n2)c(C(=O)NCC2CCS(=O)(=O)C2)n1` (stereo not drawn) [Example 45, 2′-((cyclopropylmethyl)amino)-N-(3-(((1,1-dioxidotetrahydrothiophen-3-yl)methyl)carbamoyl)-1-methyl-1H-pyrazol-4-yl)-[2,4′-bipyridine]-6-carboxamide] was run?
**A.** The IC50 was 3620 nM.

**Q.** With `Cn1cc(NC(=O)c2cccc(-c3cccnc3)n2)c(C(N)=O)n1` [Example 12, N-(3-carbamoyl-1-methyl-1H-pyrazol-4-yl)-[2,3′-bipyridine]-6-carboxamide] as the compound, how does the IC50 read?
**A.** The IC50 was 212 nM.

**Q.** How did the IC50 turn out when `Cn1cc(NC(=O)c2cccc(-c3ccnc(NCC4CC4)c3)n2)c(C(N)=O)n1` [Example 1, N-(3-carbamoyl-1-methyl-1H-pyrazol-4-yl)-2′-((cyclopropylmethyl)amino)-[2,4′-bipyridine]-6-carboxamide] was run?
**A.** The IC50 was 74 nM.

**Q.** For `Cn1cc(NC(=O)c2cccc(C3=CCS(=O)(=O)CC3)n2)c(C(N)=O)n1` [Example 26, N-(3-carbamoyl-1-methyl-1H-pyrazol-4-yl)-6-(1,1-dioxido-3,6-dihydro-2H-thiopyran-4-yl)picolinamide], which IC50 is on record?
**A.** Its IC50 is 1300 nM.

**Q.** For `Cn1cc(NC(=O)c2cccc(-c3ccnc(N)c3)n2)c(C(N)=O)n1` [Example 6, 2′-amino-N-(3-carbamoyl-1-methyl-1H-pyrazol-4-yl)-[2,4′-bipyridine]-6-carboxamide], which IC50 is on record?
**A.** The IC50 was 101 nM.

**Q.** Which IC50 does the source give for `Cn1cc(NC(=O)c2cccc(-c3ccnc(NCC4CC4)c3)n2)c(C(=O)NCc2nncs2)n1` [Example 48, N-(3-(((1,3,4-thiadiazol-2-yl)methyl)carbamoyl)-1-methyl-1H-pyrazol-4-yl)-2′-((cyclopropylmethyl)amino)-[2,4′-bipyridine]-6-carboxamide] here?
**A.** Its IC50 is 2430 nM.

**Q.** How did the IC50 turn out when `Cn1cc(NC(=O)c2cccc(-c3ccnc(NCC4CC4)c3)n2)c(C(=O)Nc2cncnc2)n1` [Example 43, 2′-((cyclopropylmethyl)amino)-N-(1-methyl-3-(pyrimidin-5-ylcarbamoyl)-1H-pyrazol-4-yl)-[2,4′-bipyridine]-6-carboxamide] was run?
**A.** Its IC50 is 1580 nM.

Reference: patent publication US9586948B2, “Inhibitors of IRAK4 activity” (MERCK SHARP & DOHME CORP., priority 2012, dated 2017)
